Results taken from US11419826B2, “Surface-modified mesoporous silica nanoparticle for blood-brain barrier penetration,tumor targeting and cancer metastasis treatment, methods of production and uses thereof” (NANO TARGETING & THERAPY BIOPHARMA INC., priority 2019, dated 2022).

How the values were obtained:
[1] = system: U87-LUC glioma cells; assay: U87-LUC orthotopic glioma xenograft mouse model; format: in vivo; conditions: Dox 10 mg/kg i.v. every 4 days for 3 times
Procedure: U87-LUC glioma cells were cultured at 37° C. in a humidified 5% CO2 atmosphere in minimum essential median (MEM) supplemented with 10% fetal bovine serum and 1% penicillin/streptomycin (Invitrogen). Cells were harvested by trypsinization, washed once with phosphate-buffered saline (PBS), and re-suspended (1×10^5 cell/μL) in MEM for subsequent implantation into the striatum of mouse brains. Pathogen-free male NU/NU mice (5 to 7 weeks old) were purchased from BioLASCO (Taiwan). Mice were housed and maintained in a controlled environment and all procedures were performed in accordance with the experimental animal care guidelines of the Animal Committee of Chang Gung University. To implant U87-LUC tumor cells, animals were anesthetized with 2% isoflurane gas and immobilized on a stereotactic frame. […] The growth of the brain tumor was monitored by IVIS and MRI.
Dox is a well-known anti-cancer drug approved for treatment of multiple cancers. […] To evaluate the efficacy of Dox@MSN-PEG+TA anti-brain tumor in vivo, the U87-LUC brain cells were implanted orthotopically into nude mice to serve as the U87-LUC xenograft mouse model; U87-LUC cells can express luciferase for quantification of tumor cells in vivo. […] The distribution of MSN-PEG+TA and Dox@MSN-PEG+TA in brain tissue and tumor were assessed from the tumor sections from nanoparticle treated mice. […]

[2] = Pharmacokinetics and quantification of Dox accumulation in plasma and brain; conditions: single i.v. dose, Dox 7.5 mg/kg; after 15 minutes
Procedure: Healthy balb/c mice were single dose intravenously injected with Dox or Dox@NTT0_18 at 7.5 mg/kg. To determine the Dox concentration in plasma and brain, blood samples were taken at 15, 30, 60, 180, 360 and 1440 minutes after injection, and after the blood samples were taken, each animal was sacrificed and perfused with PBS to obtain the brain. Dox was extracted from the samples (plasma and brain respectively) for the determination of dox concentration with a spectrophotometer.
Mice received a single dose of Dox or Dox@NTT0_18 (MSN-PEG+TA-loaded Dox) through intravenous injection (all at Dox dose 7.5 mg/kg). To determine the Dox concentration in plasma and brain, blood samples were taken at 15, 30, 60, 180, 360 and 1440 minutes after injection and animals were sacrificed and perfused with PBS at each time point. Dox was extracted from plasma and brain and the Dox concentration was measured using a spectrophotometer. The concentration versus time curves of Dox in plasma with and without MSN-PEG+TA encapsulated was also established.

In the case of `COc1cccc2c1C(=O)c1c(O)c3c(c(O)c1C2=O)C[C@@](O)(C(=O)CO)C[C@@H]3O[C@H]1C[C@H](N)[C@H](O)[C@H](C)O1` [Dox, doxorubicin], the “toxicity / body weight of treated mice” value [1] is reported as “causes death of the host”, the tumor size ([1]; during the treatment period) is reported as “shrunk during the treatment period” and the “Dox concentration in plasma” value [2] is reported as “lower than 0.2 μg/mL”.
